Conditions: pH 7
Protocol: In the present invention, the octanol/water partition coefficient is obtained as follows. After the chemical is added into a flask containing octanol and an aqueous buffer at pH 7, the mixture is shaken. Based on the chemical concentration in each phase, the octanol/water partition coefficient is calculated by the following equation. Octanol/water partition coefficient=Log 10(concentration in octanol phase/concentration in aqueous phase)

octanol/water partition coefficient: −5.0
Structure (SMILES): O.O.O.O.O.O=P([O-])(O)C(O)(Cc1cccnc1)P(=O)(O)O.O=P([O-])(O)C(O)(Cc1cccnc1)P(=O)(O)O.[Na+].[Na+] [hemipenta hydrate risedronate monosodium]
